Experimental data: ChEMBL document CHEMBL3045721, “Fungicidal Activity of New Diphenylphosphinic Amide Derivatives” (Biosci Biotechnol Biochem, 1992)

How the values were obtained:
[1] = test system: Cucumis sativus; test: Toxicity against Pseudoperonospora cubensis infected Cucumis sativus (cucumber) plants administered through preventive foliar spraying of compound at 25 to 100 ppm 1 day before fungal inoculation on cucumber plants measured 6 days after inoculation under greenhouse conditions; format: organism-based; settings: in vivo, other, 144 h
[2] = test system: Pseudoperonospora cubensis; test: Fungicidal activity against Pseudoperonospora cubensis administered through preventive foliar spraying of compound at 100 ppm 1 day before fungal inoculation on cucumber plants assessed as prevention of cucumber downy mildew measured 6 days after inoculation under greenhouse conditions; format: functional
[3] = test system: Pseudoperonospora cubensis; test: Fungicidal activity against Pseudoperonospora cubensis administered through preventive foliar spraying of compound at 25 ppm 1 day before fungal inoculation on cucumber plants assessed as prevention of cucumber downy mildew measured 6 days after inoculation under greenhouse conditions; format: functional
[4] = test system: Pseudoperonospora cubensis; test: Fungicidal activity against Pseudoperonospora cubensis administered through preventive foliar spraying of compound at 100 ppm 5 days before fungal inoculation on cucumber plants assessed as prevention of cucumber downy mildew measured 6 days after inoculation under field test conditions; format: functional
[5] = test system: Cucumis sativus; test: Toxicity against Pseudoperonospora cubensis infected Cucumis sativus (cucumber) plants administered through preventive foliar spraying of compound at 100 ppm 5 days before fungal inoculation on cucumber plants measured 6 days after inoculation under field test conditions; format: organism-based; settings: in vivo, other, 144 h

O=C(CSP(=NP(=O)(c1ccccc1)c1ccccc1)(c1ccccc1)c1ccccc1)NCc1ccccc1
Activity [1]: Non-toxic | Activity [2]: 93% | Activity [3]: 76%

CSP(=NP(=O)(c1ccccc1)c1ccccc1)(c1ccccc1)c1ccccc1
Activity [1]: Non-toxic | Activity [2]: 80% | Activity [3]: 41%

N#CCSP(=NP(=O)(c1ccccc1)c1ccccc1)(c1ccccc1)c1ccccc1
Activity [1]: Non-toxic | Activity [2]: 89% | Activity [3]: 74%

O=C(CSP(=NP(=S)(c1ccccc1)c1ccccc1)(c1ccccc1)c1ccccc1)NCc1ccccc1
Activity [1]: Non-toxic | Activity [2]: 87% | Activity [3]: 73%

O=C(CSP(=NP(=O)(c1ccccc1)c1ccccc1)(c1ccccc1)c1ccccc1)Nc1ccccc1
Activity [1]: Non-toxic | Activity [2]: 91% | Activity [3]: 75%

CCSP(=NP(=S)(c1ccccc1)c1ccccc1)(c1ccccc1)c1ccccc1
Activity [1]: Non-toxic | Activity [2]: 79% | Activity [3]: 47%

CCOC(=O)C(C)SP(=NP(=O)(c1ccccc1)c1ccccc1)(c1ccccc1)c1ccccc1 (stereo unspecified)
Activity [1]: Non-toxic | Activity [2]: 90% | Activity [3]: 76%

CCSP(=NP(=O)(c1ccccc1)c1ccccc1)(c1ccccc1)c1ccccc1
Activity [1]: Non-toxic | Activity [2]: 82% | Activity [3]: 43%

S=P(N=P(SCc1ccccc1)(c1ccccc1)c1ccccc1)(c1ccccc1)c1ccccc1
Activity [4]: 91% | Activity [1]: Non-toxic | Activity [5]: Non-toxic | Activity [2]: 100% | Activity [3]: 88%

CSP(=NP(=S)(c1ccccc1)c1ccccc1)(c1ccccc1)c1ccccc1
Activity [1]: Non-toxic | Activity [2]: 82% | Activity [3]: 50%

CCOC(=O)CSP(=NP(=O)(c1ccccc1)c1ccccc1)(c1ccccc1)c1ccccc1
Activity [1]: Non-toxic | Activity [2]: 92% | Activity [3]: 77%

O=P(N=P(SCc1ccccc1)(c1ccccc1)c1ccccc1)(c1ccccc1)c1ccccc1
Activity [4]: 88% | Activity [1]: Non-toxic | Activity [5]: Non-toxic | Activity [2]: 100% | Activity [3]: 86%

CCOC(=O)C(C)SP(=NP(=S)(c1ccccc1)c1ccccc1)(c1ccccc1)c1ccccc1 (stereo unspecified)
Activity [1]: Non-toxic | Activity [2]: 85% | Activity [3]: 70%

C/C=C/CSP(=NP(=O)(c1ccccc1)c1ccccc1)(c1ccccc1)c1ccccc1
Activity [1]: Non-toxic | Activity [2]: 79% | Activity [3]: 40%
